# Laboratory results from patent US9314025B2, “Mixtures of mesoionic pesticides” (E I DU PONT DE NEMOURS AND COMPANY, priority 2009, dated 2016).
# “And” between values parts separate entries of the source, which are not always exact repeats. Equal entries are not always repeated.
# Tested on: green peach aphid (Myzus persicae)
# Experiment: not given
# Assay type: in vivo
# Settings: Cmpd 8 alone at 250 ppm; spray, 6 days; mean of 3 replicates
# Excerpt: (§1) The presence of a synergistic effect between two active ingredients can be established with the aid of the Colby equation (see Colby, S. R., “Calculating Synergistic and Antagonistic Responses of Herbicide Combinations”, Weeds 1967, 15, 20-22):
# (§2) Using the method of Colby, the presence of a synergistic interaction between two active ingredients is established by first calculating the predicted activity, p, of the mixture based on activities of the two components applied alone. In the equation above, A is the biological activity in percentage control of one component applied alone at rate x. The B term is the biological activity in percentage control of the second component applied at rate y. The equation calculates p, the predicted biological activity of the mixture of A at rate x with B at rate y if their effects are strictly additive and no interaction has occurred. If the experimentally established effect of the mixture is greater than the predicted activity, p, synergism is present. To use the Colby equation the active ingredients of the mixture are applied in a test separately as well as in combination.
# (§3) Test compounds and compositions were formulated using a solution containing 10% acetone, 90% water and 300 ppm X-77® Spreader Lo-Foam Formula non-ionic surfactant containing alkylarylpolyoxyethylene, free fatty acids, glycols and isopropanol (Loveland Industries, Inc. Greeley, Colo., USA). The formulated compounds or compositions were applied in 1 mL of liquid through a SUJ2 atomizer nozzle with 1/8 JJ custom body (Spraying Systems Co. Wheaton, Ill., USA) positioned 1.27 cm (0.5 inches) above the top of each test unit. Tests were replicated three times. After spraying of the formulated test compound or compositions, each test unit was allowed to dry for 1 h and then a black, screened cap was placed on top. The test units were held for 6 days in a growth chamber at 25° C. and 70% relative humidity. Plant feeding damage was then visually assessed based on foliage consumed.
# For evaluating control of green peach aphid (Myzus persicae) through contact and/or systemic means, the test unit consisted of a small open container with a 12-15-day-old radish plant inside. This was pre-infested by placing on a leaf of the test plant 30-40 aphids on a piece of leaf excised from a culture plant (cut-leaf method). The aphids moved onto the test plant as the leaf piece desiccated. After pre-infestation, the soil of the test unit was covered with a layer of sand.
# Test compounds and compositions were formulated and sprayed as described for Test A. The applications were replicated three times. After spraying of the formulated test compound or composition, each test unit was allowed to dry for 1 h and then a black, screened cap was placed on top. The test units were held for 6 days in a growth chamber at 19-21° C. and 50-70% relative humidity. Each test unit was then visually assessed for insect mortality.
# The results calculated as mean averages of results from the three replicates are listed in Table B. Compound 123 was applied at a rate of 50 ppm. Compound 8 was applied at a rate of 250 ppm.
row,Compound,"Percent Mortality, Observed, Cmpd 8"
1,COc1ccc(C(F)(F)F)cc1-c1c([O-])[n+](Cc2ccc(F)nc2)c2ccccn2c1=O [Compound 8],25% and 13% and 10% and 15%

# Same assay, conditions: Cmpd 123 alone at 50 ppm; spray, 6 days; mean of 3 replicates
row,Compound,"Percent Mortality, Observed, Cmpd 123"
1,O=c1c(-c2cc(OC(F)(F)F)cc(-c3ccc(F)nc3)c2)c([O-])[n+](Cc2cnc(Cl)s2)c2ccccn12 [Compound 123],15% and 18% and 22% and 9% and 66%

# Same assay, conditions: in vivo
row,Compound,"Percent Mortality, Observed, Cmpd A"
1,CC1(C)[C@H](C(=O)O[C@H](C#N)c2cccc(Oc3ccccc3)c2)[C@@H]1/C=C(\Cl)C(F)(F)F (racemic) [lambda-cyhalothrin],39%
2,C/C(=N\C#N)N(C)Cc1ccc(Cl)nc1 [acetamiprid],9%
3,CC(C)N1C(=O)N(c2ccccc2)CS/C1=N\C(C)(C)C [buprofezin],14%
4,CN(C)C(CSC(N)=O)CSC(N)=O [cartap],15%
5,CNC(=O)c1cc(Cl)cc(C)c1NC(=O)c1cc(Br)nn1-c1ncccc1Cl [chlorantraniliprole],11%
6,CCOCn1c(-c2ccc(Cl)cc2)c(C#N)c(Br)c1C(F)(F)F [chlorfenapyr],54%
7,CCOP(=S)(OCC)Oc1nc(Cl)c(Cl)cc1Cl [chlorpyrifos],18%
8,CN/C(=N\[N+](=O)[O-])NCc1cnc(Cl)s1 [clothianidin],16%
9,CNC(=O)c1cc(C#N)cc(C)c1NC(=O)c1cc(Br)nn1-c1ncccc1Cl [cyantraniliprole],10%
10,CN/C(=N/CC1CCOC1)N[N+](=O)[O-] (centres unmarked) [dinotefuran],33%
11,N#Cc1nn(-c2c(Cl)cc(C(F)(F)F)cc2Cl)c(N)c1[S+]([O-])C(F)(F)F (centres unmarked) [fipronil],87%
12,N#CCNC(=O)c1cnccc1C(F)(F)F [flonicamid],14%
13,Cc1cc(C(F)(C(F)(F)F)C(F)(F)F)ccc1NC(=O)c1cccc(I)c1C(=O)NC(C)(C)CS(C)(=O)=O [flubendiamide],5%
14,COC(=O)N(C(=O)N1CO[C@@]2(C(=O)OC)Cc3cc(Cl)ccc3C2=N1)c1ccc(OC(F)(F)F)cc1 [indoxacarb],32%
15,CNC(=O)ON=C(C)SC [methomyl],28%
16,COc1cccc(C(=O)NN(C(=O)c2cc(C)cc(C)c2)C(C)(C)C)c1C [methoxyfenozide],16%
17,O=C(NC(=O)c1c(F)cccc1F)Nc1ccc(OC(F)(F)C(F)OC(F)(F)F)c(Cl)c1 (centres unmarked) [novaluron],7%
18,CNC(=O)O/N=C(\SC)C(=O)N(C)C [oxamyl],23%
19,CC1=NNC(=O)N(/N=C/c2cccnc2)C1 [pymetrozine],28%
20,FC(F)(F)c1ccc(OCCCOc2c(Cl)cc(OCC=C(Cl)Cl)cc2Cl)nc1 [pyridalyl],13%
21,CC(COc1ccc(Oc2ccccc2)cc1)Oc1ccccn1 (centres unmarked) [pyriproxifen],10%
22,CCOC(=O)OC1=C(c2cc(C)ccc2C)C(=O)N[C@]12CC[C@@H](OC)CC2 [spirotetramat],8%
23,N#C/N=C1\SCCN1Cc1ccc(Cl)nc1 [thiacloprid],12%
24,CN1COCN(Cc2cnc(Cl)s2)/C1=N\[N+](=O)[O-] [thiamethoxam],40%
25,CS/C(C)=N\OC(=O)N(C)SN(C)C(=O)O/N=C(\C)SC [thiodicarb],25%
26,CCc1nn(C)c(C(=O)NCc2ccc(Oc3ccc(C)cc3)cc2)c1Cl [tolfenpyrad],77%
27,abamectin,91%
28,spinetoram,10%

# Tested on: Western Flower Thrip (Frankliniellla occidentalis)
# Experiment: Test D: control of Western Flower Thrip on Soleil bean plant through contact and/or systemic means, plant protection
# Assay type: in vivo
# Settings: Cmpd 8 alone at 250 ppm; spray, 7 days; (0 to 10 rating) × 10; mean of 3 replicates
# Excerpt: as §1, §2, §3
# For evaluating control of the Western Flower Thrip (Frankliniellla occidentalis) through contact and/or systemic means, the test unit consisted of a small open container with a 5-7-day-old Soleil bean plant inside.
# Test compounds and compositions were formulated, sprayed, and replicated three times as described for Test A. After spraying, the test units were allowed to dry for 1 hour and then 22-27 adult thrips were added to the unit and then a black, screened cap was placed on top. The test units were held for 7 days at 25° C. and 45-55% relative humidity.
# Compound 8 was applied at a rate of 250 ppm.
row,Compound,"Plant Protection, Observed, Cmpd 8"
1,COc1ccc(C(F)(F)F)cc1-c1c([O-])[n+](Cc2ccc(F)nc2)c2ccccn2c1=O [Compound 8],53 (5×) and 37 (5×) and 50 (6×) and 10 (6×) and 30 (6×)

# Same assay, conditions: Cmpd 123 alone at 25 ppm; spray, 7 days; (0 to 10 rating) × 10; mean of 3 replicates
row,Compound,"Plant Protection, Observed, Cmpd 123"
1,O=c1c(-c2cc(OC(F)(F)F)cc(-c3ccc(F)nc3)c2)c([O-])[n+](Cc2cnc(Cl)s2)c2ccccn12 [Compound 123],23 (5×) and 30 (5×) and 33 (6×) and 3 (6×) and 40 (6×)

# Same assay, conditions: in vivo
row,Compound,"Plant Protection, Observed, Cmpd A"
1,N#CCNC(=O)c1cnccc1C(F)(F)F [flonicamid],60
2,COC(=O)N(C(=O)N1CO[C@@]2(C(=O)OC)Cc3cc(Cl)ccc3C2=N1)c1ccc(OC(F)(F)F)cc1 [indoxacarb],23
3,CC(COc1ccc(Oc2ccccc2)cc1)Oc1ccccn1 (centres unmarked) [pyriproxifen],7
4,abamectin,20
5,spinetoram,27

# Tested on: corn planthopper (Peregrinus maidis)
# Experiment: not given
# Assay type: in vivo
# Settings: Cmpd 8 alone at 0.2 ppm; spray, 6 days; mean of 3 replicates
# Excerpt: as §1, §2, §3
# For evaluating control of corn planthopper (Peregrinus maidis) through contact and/or systemic means, the test unit consisted of a small open container with a 3-4-day-old maize plant (spike) inside. White sand was added to the top of the soil prior to application. Test compounds and compositions were formulated, sprayed, and replicated three times as described for Test A. After spraying, the test units were allowed to dry for 1 h before they were post-infested with ˜15-20 nymphs (18 to 21 day old) by sprinkling them onto the sand with a salt shaker. A black, screened cap was placed on the top of the cylinder. The test units were held for 6 days in a growth chamber at 22-24° C. and 50-70% relative humidity. Each test unit was then visually assessed for insect mortality.
# Compound 123 was applied at a rate of 2.5 ppm. Compound 8 was applied at a rate of 0.2 ppm.
row,Compound,"Percent Mortality, Observed, Cmpd 8"
1,COc1ccc(C(F)(F)F)cc1-c1c([O-])[n+](Cc2ccc(F)nc2)c2ccccn2c1=O [Compound 8],38% and 71% and 8% and 55% and 76%

# Same assay, conditions: Cmpd 123 alone at 2.5 ppm; spray, 6 days; mean of 3 replicates
row,Compound,"Percent Mortality, Observed, Cmpd 123"
1,O=c1c(-c2cc(OC(F)(F)F)cc(-c3ccc(F)nc3)c2)c([O-])[n+](Cc2cnc(Cl)s2)c2ccccn12 [Compound 123],28% and 21% and 8% and 42% and 68%

# Same assay, conditions: in vivo
row,Compound,"Percent Mortality, Observed, Cmpd A"
1,CC1(C)[C@H](C(=O)O[C@H](C#N)c2cccc(Oc3ccccc3)c2)[C@@H]1/C=C(\Cl)C(F)(F)F (racemic) [lambda-cyhalothrin],45%
2,C/C(=N\C#N)N(C)Cc1ccc(Cl)nc1 [acetamiprid],32%
3,CC(C)N1C(=O)N(c2ccccc2)CS/C1=N\C(C)(C)C [buprofezin],44%
4,CN(C)C(CSC(N)=O)CSC(N)=O [cartap],40%
5,CNC(=O)c1cc(Cl)cc(C)c1NC(=O)c1cc(Br)nn1-c1ncccc1Cl [chlorantraniliprole],33%
6,CCOCn1c(-c2ccc(Cl)cc2)c(C#N)c(Br)c1C(F)(F)F [chlorfenapyr],81%
7,CCOP(=S)(OCC)Oc1nc(Cl)c(Cl)cc1Cl [chlorpyrifos],48%
8,CN/C(=N\[N+](=O)[O-])NCc1cnc(Cl)s1 [clothianidin],35%
9,CNC(=O)c1cc(C#N)cc(C)c1NC(=O)c1cc(Br)nn1-c1ncccc1Cl [cyantraniliprole],67%
10,CN/C(=N/CC1CCOC1)N[N+](=O)[O-] (centres unmarked) [dinotefuran],42%
11,N#Cc1nn(-c2c(Cl)cc(C(F)(F)F)cc2Cl)c(N)c1[S+]([O-])C(F)(F)F (centres unmarked) [fipronil],21%
12,N#CCNC(=O)c1cnccc1C(F)(F)F [flonicamid],70%
13,Cc1cc(C(F)(C(F)(F)F)C(F)(F)F)ccc1NC(=O)c1cccc(I)c1C(=O)NC(C)(C)CS(C)(=O)=O [flubendiamide],42%
14,COC(=O)N(C(=O)N1CO[C@@]2(C(=O)OC)Cc3cc(Cl)ccc3C2=N1)c1ccc(OC(F)(F)F)cc1 [indoxacarb],21%
15,CNC(=O)ON=C(C)SC [methomyl],80%
16,COc1cccc(C(=O)NN(C(=O)c2cc(C)cc(C)c2)C(C)(C)C)c1C [methoxyfenozide],33%
17,O=C(NC(=O)c1c(F)cccc1F)Nc1ccc(OC(F)(F)C(F)OC(F)(F)F)c(Cl)c1 (centres unmarked) [novaluron],51%
18,CNC(=O)O/N=C(\SC)C(=O)N(C)C [oxamyl],32%
19,CC1=NNC(=O)N(/N=C/c2cccnc2)C1 [pymetrozine],76%
20,FC(F)(F)c1ccc(OCCCOc2c(Cl)cc(OCC=C(Cl)Cl)cc2Cl)nc1 [pyridalyl],62%
21,CC(COc1ccc(Oc2ccccc2)cc1)Oc1ccccn1 (centres unmarked) [pyriproxifen],20%
22,CCOC(=O)OC1=C(c2cc(C)ccc2C)C(=O)N[C@]12CC[C@@H](OC)CC2 [spirotetramat],65%
23,N#C/N=C1\SCCN1Cc1ccc(Cl)nc1 [thiacloprid],60%
24,CN1COCN(Cc2cnc(Cl)s2)/C1=N\[N+](=O)[O-] [thiamethoxam],29%
25,CS/C(C)=N\OC(=O)N(C)SN(C)C(=O)O/N=C(\C)SC [thiodicarb],64%
26,CCc1nn(C)c(C(=O)NCc2ccc(Oc3ccc(C)cc3)cc2)c1Cl [tolfenpyrad],98%
27,abamectin,90%
28,spinetoram,58%

# Tested on: diamondback moth (Plutella xylostella)
# Experiment: Test A: control of diamondback moth on radish plant, foliar spray, plant feeding damage assessed visually
# Assay type: in vivo
# Settings: Cmpd 8 alone at 20 ppm; foliar spray, 6 days; (0 to 10 rating) × 10; mean of 3 replicates
# Excerpt: as §1, §2
# For evaluating control of diamondback moth (Plutella xylostella) the test unit consisted of a small open container with a 12-14-day-old radish plant inside. This was pre-infested with ˜50 neonate larvae that were dispensed into the test unit via corn cob grits using a bazooka inoculator. The larvae moved onto the test plant after being dispensed into the test unit.
# as §3
# Compound 8 was applied at a rate of 20 ppm.
row,Compound,"Plant Protection, Observed, Cmpd 8"
1,COc1ccc(C(F)(F)F)cc1-c1c([O-])[n+](Cc2ccc(F)nc2)c2ccccn2c1=O [Compound 8],13 (5×) and 0 (11×) and 40 (6×) and 17 (6×)

# Same assay, conditions: Cmpd 123 alone at 0.1 ppm; foliar spray, 6 days; (0 to 10 rating) × 10; mean of 3 replicates
row,Compound,"Plant Protection, Observed, Cmpd 123"
1,O=c1c(-c2cc(OC(F)(F)F)cc(-c3ccc(F)nc3)c2)c([O-])[n+](Cc2cnc(Cl)s2)c2ccccn12 [Compound 123],33 (5×) and 17 (11×) and 97 (6×) and 80 (6×)

# Same assay, conditions: in vivo
row,Compound,"Plant Protection, Observed, Cmpd A"
1,N#CCNC(=O)c1cnccc1C(F)(F)F [flonicamid],10
2,COC(=O)N(C(=O)N1CO[C@@]2(C(=O)OC)Cc3cc(Cl)ccc3C2=N1)c1ccc(OC(F)(F)F)cc1 [indoxacarb],40
3,CC(COc1ccc(Oc2ccccc2)cc1)Oc1ccccn1 (centres unmarked) [pyriproxifen],0
4,abamectin,50
5,spinetoram,40
